Data reported in patent publication US20170100396A1 (priority 2015, published 2017).

System: influenza A virus (IAV) A/Aichi/2/68 (H3N2)
Test: microbe, parasite or virus in culture
Assay type: cell-based, influenza A virus in MDCK cells
Settings: for IC50: H3N2, MDCK, 48 h, read-out: CPE IC50
[1] = Influenza A virus, H3N2, read-out: % CPE reduction

SMILES | IC50 (Influenza A virus) [µM] | also measured
COC(=O)[C@H]1CC[C@H](NC(=O)[C@H](NC(=O)c2c[nH]c3ncc(C4CC4)nc23)C2CCCCC2)CC1 | – | CPE (result in words): Active
COc1ccc(C(C)(C)CNC(=O)c2c[nH]c3ncc(C4CC4)nc23)cc1OC | – | inhibition at 2.5 µM [1]: 15.8%
CC(C)(NC(=O)c1c[nH]c2ncc(C3CC3)nc12)C(=O)N1CCCC1 | > 100 | –
CC(C)c1cnc2[nH]cc(C(=O)NCC(F)(F)F)c2n1 | > 50 | –
COc1ccc(CNC(=O)[C@H](NC(=O)c2c[nH]c3ncc(C4CC4)nc23)C2CC2)cc1 | 10.3 | –
CC(C)c1cnc2[nH]cc(C(=O)NCCCN3CCOCC3)c2n1 | > 100 | –
CC(C)C[C@@H](NC(=O)c1c[nH]c2ncc(C3CC3)nc12)C(=O)NCCC(=O)NCc1ccccc1 | > 100 | –
O=C(N[C@@H](C(=O)NCc1cccc(Cl)c1)C1CC1)c1c[nH]c2ncc(C3CC3)nc12 | 7.3 | –
CC(C)C[C@@H](NC(=O)c1c[nH]c2ncc(C3CC3)nc12)C(=O)N1CCCC1 | > 100 | –
O=C(N[C@@H](C(=O)NCc1ccc(F)cc1)C1CC1)c1c[nH]c2ncc(C3CC3)nc12 | 16.1 | –
O=C(N[C@@H](C(=O)N1CC[C@@H](O)C1)C1CCCCC1)c1c[nH]c2ncc(C3CC3)nc12 | – | inhibition at 50 µM [1]: -14.8%
O=C(N[C@@H](C(=O)NCc1ccncn1)C1CCCCC1)c1c[nH]c2ncc(C3CC3)nc12 | – | inhibition at 50 µM [1]: -2.2%
O=C(N[C@@H](C(=O)N1CCCC1)C1CC1)c1c[nH]c2ncc(C3CC3)nc12 | > 25 | –
O=C(N[C@@H](C(=O)NCc1ccccc1)C1CCCCC1)c1c[nH]c2ncc(C3CC3)nc12 | – | inhibition at 5 µM [1]: -2.2%
O=C(N[C@@H](C(=O)N1CCC[C@@H](C(=O)N2CCCCC2)C1)C1CC1)c1c[nH]c2ncc(C3CC3)nc12 | > 100 | –
COc1ccc(NC(=O)[C@H](NC(=O)c2c[nH]c3ncc(C4CC4)nc23)C2CC2)cc1 | > 100 | –
CCOC(=O)C1(c2cccc(-c3cnc4[nH]cc(C(=O)NC(C)C)c4n3)c2)CC1 | – | inhibition at 5 µM [1]: -0.5%
O=C(N[C@@H](C(=O)NCc1ccncc1)C1CC1)c1c[nH]c2ncc(C3CC3)nc12 | 40.4 | –
O=C(N[C@@H](C(=O)N1CCC[C@H](C(=O)N2CCCCC2)C1)C1CC1)c1c[nH]c2ncc(C3CC3)nc12 | 33.1 | –
CC(C)C[C@@H](NC(=O)c1c[nH]c2ncc(C3CC3)nc12)C(=O)N1CC2(CN(C(=O)OC(C)(C)C)C2)C1 | > 100 | –
Cc1ccc(CNC(=O)c2c[nH]c3ncc(C(C)C)nc23)nn1 | 139 | –
O=C(N[C@@H](C(=O)NCc1ccc(F)c(F)c1)C1CC1)c1c[nH]c2ncc(C3CC3)nc12 | 14.8 | –

SMILES | IC50 (Influenza A virus) [µM] | also measured
COCCN(CCOC)C(=O)c1c[nH]c2ncc(C(C)C)nc12 | > 100 | –
O=C(N[C@@H](C(=O)NCC(=O)N1CCOCC1)C1CC1)c1c[nH]c2ncc(C3CC3)nc12 | > 100 | –
CS(=O)(=O)CCNC(=O)c1c[nH]c2ncc(-c3ccccc3Cl)nc12 | > 100 | –
O=C(N[C@@H](C(=O)N1CCC[C@@H](C(=O)N2CCCC2)C1)C1CC1)c1c[nH]c2ncc(C3CC3)nc12 | > 100 | –
O=C(N[C@@H](C(=O)NCc1ccncc1)C1CCCCC1)c1c[nH]c2ncc(C3CC3)nc12 | – | inhibition at 50 µM [1]: -8.3%
NC(=O)C(NC(=O)c1c[nH]c2ncc(C3CC3)nc12)c1ccc(OC(F)(F)F)cc1 (stereo not shown) | – | inhibition at 5 µM [1]: -12.9%
CC(C)C[C@@H](NC(=O)c1c[nH]c2ncc(C3CC3)nc12)C(=O)NCCC(=O)NC1CCCC1 | > 100 | –
O=C(NCC(=O)N1CCCC1)c1c[nH]c2ncc(C3CC3)nc12 | – | inhibition at 50 µM [1]: 36.2%
O=C(N[C@@H](C(=O)N1CCC[C@H](C(=O)N2CCCC2)C1)C1CC1)c1c[nH]c2ncc(C3CC3)nc12 | > 100 | –
O=C(N[C@@H](C(=O)NCC(=O)N1CCS(=O)(=O)CC1)C1CC1)c1c[nH]c2ncc(C3CC3)nc12 | > 100 | –
O=C(NCC(=O)N1CCCC1)c1c[nH]c2ncc(Br)nc12 | > 100 | –
O=C(N[C@@H](C(=O)NCc1ccc(Cl)cc1)C1CC1)c1c[nH]c2ncc(C3CC3)nc12 | 2.99 | –
CC1(CNC(=O)c2c[nH]c3ncc(-c4ccccc4Cl)nc23)CCC(=O)N1 (stereo not shown) | > 100 | –
O=C(N[C@@H](C(=O)N1CCN(C2CCOCC2)CC1)C1CC1)c1c[nH]c2ncc(C3CC3)nc12 | > 100 | –
O=C(N[C@@H](C(=O)NCc1ccc(OC(F)(F)F)cc1)C1CC1)c1c[nH]c2ncc(C3CC3)nc12 | 5.4 | –
CC(C)c1cnc2[nH]cc(C(=O)NC3(C#N)CC3)c2n1 | 34.7 | –
O=C(N[C@@H](C(=O)NCCC(=O)N1CCCCC1)C1CC1)c1c[nH]c2ncc(C3CC3)nc12 | > 100 | –
O=C(N[C@@H](C(=O)NCc1ccccc1Cl)C1CC1)c1c[nH]c2ncc(C3CC3)nc12 | 8.8 | –
O=C(N[C@@H](C(=O)NC1CCCc2ccccc21)C1CC1)c1c[nH]c2ncc(C3CC3)nc12 (stereo partly shown) | > 100 | –
COc1ccc(CCNC(=O)[C@H](NC(=O)c2c[nH]c3ncc(C4CC4)nc23)C2CC2)cc1 | > 100 | –
O=C(N[C@@H](C(=O)NCC(=O)N1CCCC1)C1CC1)c1c[nH]c2ncc(C3CC3)nc12 | > 100 | –
O=C(N[C@@H](C(=O)N1CCC2(CCN(Cc3ccccc3)C2=O)C1)C1CC1)c1c[nH]c2ncc(C3CC3)nc12 (stereo partly shown) | 27 | –

SMILES | IC50 (Influenza A virus) [µM] | also measured
O=C(N[C@@H](C(=O)NCc1ccccc1F)C1CC1)c1c[nH]c2ncc(C3CC3)nc12 | 14.6 | –
O=C(N[C@@H](C(=O)NCCC(=O)N1CCCC1)C1CC1)c1c[nH]c2ncc(C3CC3)nc12 | > 100 | –
CCCNC(=O)c1c[nH]c2ncc(C(C)C)nc12 | 18.1 | –
O=C(N[C@@H](C(=O)Nc1ccccc1)C1CC1)c1c[nH]c2ncc(C3CC3)nc12 | > 100 | –
O=C(N[C@@H](C(=O)NCCC(=O)N1CCS(=O)(=O)CC1)C1CC1)c1c[nH]c2ncc(C3CC3)nc12 | > 100 | –
CC(C)C[C@@H](NC(=O)c1c[nH]c2ncc(C3CC3)nc12)C(=O)NC1CCCc2ccccc21 (stereo partly shown) | > 100 | –
CC(C)C[C@@H](NC(=O)c1c[nH]c2ncc(C3CC3)nc12)C(=O)NCC(=O)Nc1ccccc1 | – | inhibition at 50 µM [1]: 25%
O=C(N[C@@H](C(=O)N[C@H]1CC[C@H](C(=O)O)CC1)C1CCCCC1)c1c[nH]c2ncc(C3CC3)nc12 | – | inhibition at 50 µM [1]: 14.8%
COC(=O)C1CCN(C(=O)[C@H](NC(=O)c2c[nH]c3ncc(C4CC4)nc23)C2CCCCC2)C1 (stereo partly shown) | – | inhibition at 5 µM [1]: -8.1%
CC(C)C[C@@H](NC(=O)c1c[nH]c2ncc(C3CC3)nc12)C(=O)NCC(=O)NCc1ccccn1 | > 100 | –
O=C(N[C@H](C(=O)N1CCCC1)C1CC1)c1c[nH]c2ncc(C3CC3)nc12 | > 25 | –
CC(C)C[C@@H](NC(=O)c1c[nH]c2ncc(C3CC3)nc12)C(=O)NCC(=O)NCc1ccccc1 | > 100 | –
O=C(N[C@@H](C(=O)N1CCN(Cc2ccccc2)CC1)C1CC1)c1c[nH]c2ncc(C3CC3)nc12 | 41.9 | –
CC(C)C(NC(=O)c1c[nH]c2ncc(C3CC3)nc12)C(N)=O (stereo not shown) | – | inhibition at 5 µM [1]: -10.7%
O=C(O)c1cccc(CNC(=O)[C@H](NC(=O)c2c[nH]c3ncc(C4CC4)nc23)C2CC2)c1 | – | inhibition at 50 µM [1]: -0.2%
O=C(N[C@@H](C(=O)NCCC(=O)N1CCOCC1)C1CC1)c1c[nH]c2ncc(C3CC3)nc12 | > 100 | –
N#CC(NC(=O)[C@H](NC(=O)c1c[nH]c2ncc(C3CC3)nc12)C1CC1)c1ccc(C(F)(F)F)cc1 (stereo partly shown) | > 10 | –
O=C(N[C@@H](C(=O)NCCc1ccc(Cl)cc1)C1CC1)c1c[nH]c2ncc(C3CC3)nc12 | > 100 | –
CC(C)C[C@@H](NC(=O)c1c[nH]c2ncc(C3CC3)nc12)C(=O)NCCC(=O)Nc1ccccc1 | > 100 | –
O=C(N[C@@H](C(=O)NCc1cc(Cl)cc(Cl)c1)C1CC1)c1c[nH]c2ncc(C3CC3)nc12 | > 25 | –
CC(C)NC(=O)c1c[nH]c2ncc(-c3ccccc3C(F)(F)F)nc12 | > 100 | –
COc1ccc(C(C#N)NC(=O)[C@H](NC(=O)c2c[nH]c3ncc(C4CC4)nc23)C2CC2)cc1 (stereo partly shown) | 4.9 | –

SMILES | IC50 (Influenza A virus) [µM] | also measured
CCN(C)C(=O)c1c[nH]c2ncc(C(C)C)nc12 | > 100 | –
O=C(N[C@@H](C(=O)NCc1ccccc1)C1CC1)c1c[nH]c2ncc(C3CC3)nc12 | 18.2 | –
CC(C)c1cnc2[nH]cc(C(=O)NC3CCCCC3O)c2n1 (stereo not shown) | 11.3 | –
CC(C)C[C@@H](NC(=O)c1c[nH]c2ncc(C3CC3)nc12)C(=O)N1CC2(CNC2)C1 | > 100 | –
CC(C)C[C@@H](NC(=O)c1c[nH]c2ncc(C3CC3)nc12)C(=O)NCCC(=O)NCc1ccccn1 | > 100 | –
CC(C)c1cnc2[nH]cc(C(=O)NC(C)C(C)(C)O)c2n1 (stereo not shown) | 12.2 | –
O=C(N[C@@H](C(=O)N1CC(F)(F)C1)C1CC1)c1c[nH]c2ncc(C3CC3)nc12 | > 100 | –
O=C(N[C@@H](C(=O)NCc1ccc(Cl)c(Cl)c1)C1CC1)c1c[nH]c2ncc(C3CC3)nc12 | 4.7 | –
CC(NC(=O)[C@H](NC(=O)c1c[nH]c2ncc(C3CC3)nc12)C1CC1)c1ccccc1 (stereo partly shown) | – | inhibition at 5 µM [1]: 2.7%
O=C(N[C@@H](C(=O)N1CC2(COC2)C1)C1CC1)c1c[nH]c2ncc(C3CC3)nc12 | > 100 | –
O=C(N[C@@H](C(=O)NCC1CCOCC1)C1CCCCC1)c1c[nH]c2ncc(C3CC3)nc12 | – | inhibition at 5 µM [1]: 20.5%
O=C(N[C@@H](C(=O)N1CCc2ccccc2C1)C1CC1)c1c[nH]c2ncc(C3CC3)nc12 | > 100 | –
O=C(N[C@@H](C(=O)N1CCCCC1)C1CC1)c1c[nH]c2ncc(C3CC3)nc12 | > 100 | –
O=C(N[C@@H](C(=O)NCc1ccc(C(F)(F)F)cc1)C1CC1)c1c[nH]c2ncc(C3CC3)nc12 | 4.6 | –
O=C(N[C@@H](C(=O)N1CCC(CO)C1)C1CCCCC1)c1c[nH]c2ncc(C3CC3)nc12 (stereo partly shown) | – | inhibition at 50 µM [1]: -10.1%
CC(C)c1cnc2[nH]cc(C(=O)N3CCC(F)(F)CC3)c2n1 | > 100 | –
O=C(N[C@@H](C(=O)N1CCC[C@H](C(=O)N2CCOCC2)C1)C1CC1)c1c[nH]c2ncc(C3CC3)nc12 | > 100 | –
O=C(N[C@@H](C(=O)N1CCC[C@@H](C(=O)N2CCOCC2)C1)C1CC1)c1c[nH]c2ncc(C3CC3)nc12 | > 100 | –
CC(C)NC(=O)c1c[nH]c2ncc(-c3ccc(C4(C(=O)O)CC4)cc3)nc12 | – | inhibition at 25 µM [1]: -8.7%
O=C(N[C@@H](C(=O)NCc1cccnc1)C1CC1)c1c[nH]c2ncc(C3CC3)nc12 | – | inhibition at 50 µM [1]: 6.6%
O=C(N[C@@H](C(=O)NCCc1ccccc1)C1CC1)c1c[nH]c2ncc(C3CC3)nc12 | > 100 | –
COC(=O)C1CC2(CC(NC(=O)[C@@H](CC(C)C)NC(=O)c3c[nH]c4ncc(C5CC5)nc34)C2)C1 (stereo partly shown) | > 100 | –
